The source of these data is paper PMC6749586, “Design, Synthesis, and Anticancer Effect Studies of Iridium(III) Polypyridyl Complexes against SGC-7901 Cells” (Molecules, 2019).

Broadly, the IC50 is the concentration at which inhibition is half-maximal.

For one series, the system named is A549 cells. Put plainly: MTT cytotoxicity assay, A549. Type of series: cell-based, human. Conditions: 48 h, read-out: IC50 toward A549. An excerpt: (§1) The lung carcinoma cell line A549, the cervical cancer cell line HeLa, the esophageal cancer cell line Eca-109, and the human hepatocellular carcinoma cell line BEL-7402 were purchased from the cell bank of the Cell Institute of Sinica Academia Shanghai (Shanghai, China). The gastric adenocarcinoma cell line SGC-7901, the hepatocellular carcinoma cell line HepG2, and the mouse embryonic fibroblast cell line NIH 3T3 were obtained from the Experimental Animal Center of Sun Yat-Sen University (Guangzhou, China). The BEL-7402 and SGC-7901 cell lines were cultured in Roswell Park Memorial Institute Medium (RPMI-1640); and A549, Eca-109, HepG2, and NIH 3T3 cells were grown in Dulbecco’s Modified Eagle’s Medium (DMEM), including 10% fetal bovine serum (FBS), 100 units mL^−1 penicillin/streptomycin mixture, and 2.0 g/L of NaHCO3. Cell passage experiments were performed with trypsin every 2 days to maintain exponential growth. All cells were cultured until they reached logarithmic growth phase, unless specifically noted.
(§2) Cell cytotoxicity following treatment with the iridium(III) complexes was detected by MTT assay. The cells were seeded into 96-well micro-assay culture plates (1 × 10^4 cells per well) and grown overnight in a 5% CO2 incubator at 37 °C. Then, the cell lines were treated with gradient concentrations of the complexes 1–3. After treatment for 48 h, MTT solution (5 mg mL^−1, […]) dissolved in phosphate buffer was added to each well and the cells were further cultured for 4 h. Upon completion of incubation, the solvent was removed and 100 µL/well of buffer containing dimethylformamide (50%) and sodium dodecyl sulfate (20%) was added to dissolve the produced formazan. The absorbance of each well was measured with a microplate reader at a wavelength of 490 nm. The IC50 values were determined from the plots of viability versus concentration used to treat the cells. Three independent experiments were performed to obtain the mean values.
A general note: Tetrazolium dyes change colour on reduction, which living cells bring about.

The test system of another series is Eca-109 cells. Put plainly: MTT cytotoxicity assay, Eca-109. Type of series: cell-based, human. Conditions: 48 h, read-out: IC50 toward Eca-109. An excerpt:
The lung carcinoma cell line A549, the cervical cancer cell line HeLa, the esophageal cancer cell line Eca-109, and the human hepatocellular carcinoma cell line BEL-7402 were purchased from the cell bank of the Cell Institute of Sinica Academia Shanghai (Shanghai, China). The gastric adenocarcinoma cell line SGC-7901, the hepatocellular carcinoma cell line HepG2, and the mouse embryonic fibroblast cell line NIH 3T3 were obtained from the Experimental Animal Center of Sun Yat-Sen University (Guangzhou, China). […] Cell passage experiments were performed with trypsin every 2 days to maintain exponential growth. All cells were cultured until they reached logarithmic growth phase, unless specifically noted. Cell cytotoxicity following treatment with the iridium(III) complexes was detected by MTT assay. The cells were seeded into 96-well micro-assay culture plates (1 × 10^4 cells per well) and grown overnight in a 5% CO2 incubator at 37 °C. Then, the cell lines were treated with gradient concentrations of the complexes 1–3. After treatment for 48 h, MTT solution (5 mg mL^−1, […]) dissolved in phosphate buffer was added to each well and the cells were further cultured for 4 h. […] The absorbance of each well was measured with a microplate reader at a wavelength of 490 nm. The IC50 values were determined from the plots of viability versus concentration used to treat the cells. Three independent experiments were performed to obtain the mean values.

Another series has as its system NIH 3T3 cells. Kind of series: MTT cytotoxicity assay, normal NIH 3T3. The note with it: 48 h, read-out: IC50 toward NIH 3T3. The class given is cell-based, mouse.
From the text: as §1, §2

A short description of series [1]: Oil-water partition coefficient, flask-shake method. The class given is physicochemical. The note with it: octanol/water, pH 7.4, flask-shake, 25 °C. The method, then:
The pH of the cells cultured in vitro was approximately 7.4. With this in mind, we evaluated the lipophilicity of the iridium complexes by detecting the partition coefficient at pH = 7.4, using the flask-shake method. Each drug was dissolved in pre-saturated octanol at final concentrations of 0.02 and 0.03 mM. Aliquots of 5 mL of drug solution and distilled water (previously saturated with octanol) were transferred to a 25 mL flask and shaked at 25 °C for 24 h. After the shaking was completed, the solution was allowed to stand for 48 h to fully equilibrate the aqueous phase and the organic phase. The concentration of the complexes in the aqueous phase was then measured by UV-vis spectroscopy at the maximum ultraviolet absorption (262 nm for 1, 249 nm for 2, and 251 nm for 3). The evaluation of each sample was repeated three times.

Series [2] deals with SGC-7901 cells. Kind of series: Cell cycle assay (PI, flow cytometry). The class given is cell-based, human. Conditions: for Percentage in the cells, G0/G1 phase / Phase of cell cycle arrest / Percentage in the cells, G2/M phase / Percentage in the cells, S phase: 4.0 µM 1, 15.0 µM 2, 15.0 µM 3, 24 h; for Percentage in the cells, G2/M phase: control 14.92%; for Percentage in the cells, S phase: control 37.46%. The method, then: Then, each sample was washed twice with cold PBS, re-suspended in 190 μL of PBS buffer containing 4 μL of PI (1 mg/mL), 4 μL of RnaseA (10 mg/mL) and 0.2 μL of Tritonx-100, and stained in the dark for 30 min. Finally, the cells were analyzed by flow cytometry

For series [3], the system named is SGC-7901 cells. Kind of series: Colony-forming assay. Conditions: 4.0 µM 1, 15.0 µM 2, 15.0 µM 3, 8 days. The class given is cell-based, human. The method, then: The SGC-7901 cells were seeded at a cell density of 500 cells per well in a 6-well plate. After 24 h, an equal amount of solvent or iridium complexes was added into the medium for another 24 h. Then, the medium containing the tested complexes was removed and replaced with fresh medium. The number of the colonies was counted on the 8th day after seeding and then fixed with paraformaldehyde for 20 min. The colonies were photographed under an inverted microscope after staining with 0.1% (w/v) crystal violet for 20 min. Each experiment was carried out in triplicate.

Series [4] deals with SGC-7901 cells. Put plainly: Western blot analysis of apoptosis-related proteins. The class given is cell-based, human. The note with it: 4.0 µM 1, 15.0 µM 2, 15.0 µM 3, 24 h. On the procedure: The SGC-7901 cancer cells were seeded on 6-well plates at a density of 5 × 10^5 cells per well. Following incubation for 24 h, the cells were treated with 1–3 for 24 h. Next, total proteins were extracted from the cells after incubation in lysis radioimmunoprecipitation assay (RIPA) buffer for 30 min on ice. After centrifugation (13,000× g, 4 °C, 20 min) of the cell suspension, the supernatants were obtained. Protein concentrations were determined using a BCA (bicinchoninic acid) protein assay kit. Equal amounts of denatured proteins were fractionated by electrophoresis on SDS-polyacrylamide gel at 50 V for 3 h. A pre-stained color protein marker was used as the internal reference. The gels were then segmented, transferred to polyvinylidene fluoride (PVDF) membranes (Millipore, Burlington, MA, USA) and then blocked with 5% non-fat milk in TBST buffer (150 mM NaCl, 20 mM Tris-HCl, 0.05% Tween 20, pH = 8.0) for 2 h. […] Further hybridization with the secondary antibodies (diluted 1:5000) conjugated with horseradish peroxidase was performed after washing the membranes three times in TBST buffer with shaking. Each protein was visualized using an enhanced chemiluminescence (ECL) detection kit, in accordance with the manufacturer’s instructions. Finally, the blot images were photographed by a computerized imaging system.
A general note: A western blot detects proteins with antibodies after separation by electrophoresis.

Regarding `F[P-](F)(F)(F)(F)F.O=[N+]([O-])c1cc2ccc[n+]3c2c2c1ccc[n+]2[Ir-5]312([c]3ccccc3-c3cccc[n+]31)[c]1ccccc1-c1cccc[n+]12` [Complex 1, [Ir(Hppy)2(NP)]PF6], the IC50 in the series on A549 cells worked out at 14.3 ± 2.4 µM. The IC50 with Eca-109 cells is 20.3 ± 0.9 µM. Further, the IC50 in the series on NIH 3T3 cells is 14.6 ± 1.3 µM. The same molecule gave a logPo/w in series [1] of 1.01. Also, in the series with SGC-7901 cells [2], the “Percentage in the cells, G0/G1 phase” value came to 50.28%; the “Phase of cell cycle arrest” value is listed as “inhibited cell proliferation at the S phase”; the “Percentage in the cells, G2/M phase” value was 6.70%; the “Percentage in the cells, S phase” value is 43.02%. The “Inhibition of colony formation” value with SGC-7901 cells [3] is recorded as “significant inhibition of colony formation”. In the series on SGC-7901 cells [4], the “Expression level of Bax” value is listed as “increased”, the “Expression level of Bcl-2” value is “dramatically decreased”, the “Expression level of Bcl-xL” value is “dramatically decreased” and the “Expression level of phosphorylated p53 (P-p53)” value (shortened to “Expression level … (P-p53)”) was “dramatically decreased”.
Consider `F[P-](F)(F)(F)(F)F.Nc1c(N)c2cccnc2c2ncccc12.[Ir+3].[c-]1ccccc1-c1ccccn1.[c-]1ccccc1-c1ccccn1` [Complex 3, [Ir(Hppy)2(DAP)]PF6], for which the half-inhibitory concentration (IC50) with A549 cells is > 100 µM. The IC50 in the series on Eca-109 cells is 97.1 ± 0.2 µM. Moreover, the half-inhibitory concentration (IC50) in the series on NIH 3T3 cells was > 100 µM. In series [1], this molecule displayed a logPo/w of 0.78. Also, in the series with SGC-7901 cells [2], the “Percentage in the cells, G0/G1 phase” value was 44.79%; the “Phase of cell cycle arrest” value is on record as “inhibited cell proliferation at the S phase”; the “Percentage in the cells, G2/M phase” value is given as 10.50%; the “Percentage in the cells, S phase” value was 44.71%. For the same molecule, in the series with SGC-7901 cells [3], the “Inhibition of colony formation” value was “significant inhibition of colony formation”. Further, in the series with SGC-7901 cells [4], the “Expression level of Bax” value is listed as “increased”, the “Expression level of Bcl-2” value is “dramatically decreased”, the “Expression level of Bcl-xL” value is recorded as “dramatically decreased” and the “Expression level … (P-p53)” value is on record as “dramatically decreased”.
With `F[P-](F)(F)(F)(F)F.Nc1c([N+](=O)[O-])c2cccnc2c2ncccc12.[Ir+3].[c-]1ccccc1-c1ccccn1.[c-]1ccccc1-c1ccccn1` [Complex 2, [Ir(Hppy)2(NAP)]PF6], the IC50 with A549 cells stood at 80.6 ± 1.4 µM. For the same molecule, the IC50 with Eca-109 cells was found to be 72.6 ± 5.3 µM. Also, in the series on NIH 3T3 cells, the concentration for half-maximal inhibition (IC50) turned out to be 23 ± 1.5 µM. In addition, the logPo/w in series [1] worked out at 1.33. In addition, in the series with SGC-7901 cells [2], the “Percentage in the cells, G0/G1 phase” value is 56.65%; the “Phase of cell cycle arrest” value is “cell cycle arrest at G0/G1”; the “Percentage in the cells, G2/M phase” value came to 5.49%; the “Percentage in the cells, S phase” value was found to be 37.86%. Besides, the “Increase in the cells at the G0/G1 phase versus control” value with SGC-7901 cells [2] (15.0 µM, 24 h) was 9.03%. In addition, the “Inhibition of colony formation” value in the series with SGC-7901 cells [3] is listed as “significant inhibition of colony formation”. In the series with SGC-7901 cells [4], the “Expression level of Bax” value is recorded as “increased”, the “Expression level of Bcl-2” value was “dramatically decreased”, the “Expression level of Bcl-xL” value is recorded as “dramatically decreased” and the “Expression level … (P-p53)” value is given as “dramatically decreased”.
